# Organism: Oryctolagus cuniculus
# Assay: pA2 value determined by their ability to block AngII induced contractile responses in rabbit aorta strips
# Assay type: functional
# Details: read-out: pA2 (converted)
row,Compound,Kb
1,CCCCCCC(C(=O)O)n1cnc(NC(=O)c2cccc(O)c2C(=O)O)c1 (stereo unspecified),100 nM
2,CCCCCCC(C(=O)O)n1cnc(NC(=O)c2ccccc2C(=O)O)c1 (stereo unspecified),100 nM
3,CCCCCCC(C(=O)O)n1cnc(NC(=O)c2ccccc2C2N=NN=N2)c1 (stereo unspecified),100 nM

# Target: T1, Type-1 angiotensin II receptor (Oryctolagus cuniculus) (UniProt P34976)
# T1 sequence (whole entry): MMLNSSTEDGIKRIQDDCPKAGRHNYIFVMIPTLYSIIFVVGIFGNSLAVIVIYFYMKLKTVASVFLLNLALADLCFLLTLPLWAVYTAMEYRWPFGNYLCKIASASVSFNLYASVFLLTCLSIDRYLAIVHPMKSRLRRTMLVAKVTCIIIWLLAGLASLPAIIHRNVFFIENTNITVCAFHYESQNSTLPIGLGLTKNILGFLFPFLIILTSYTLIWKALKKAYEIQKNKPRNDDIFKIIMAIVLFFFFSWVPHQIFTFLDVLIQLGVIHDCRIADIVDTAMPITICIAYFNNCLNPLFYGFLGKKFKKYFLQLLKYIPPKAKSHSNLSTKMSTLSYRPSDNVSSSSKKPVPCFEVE
# Assay: In vitro antagonism of Angiotensin II receptor, type 1 in isolated rabbit thoracic aorta
# Assay type: functional, tissue-based
# Details: not given
row,Kb,Compound
1,503 nM,CCCCCC[C@H](C(=O)N1C[C@H](Oc2ccc(CC(=O)O)cc2)C[C@H]1C(=O)O)n1cnc(NC(=O)c2ccccc2S(=O)(=O)O)c1
2,156 nM,CCCCCC[C@H](C(=O)N1C[C@@H](Oc2ccc(CC(=O)O)cc2)C[C@@H]1C(=O)O)n1cnc(NC(=O)c2ccccc2S(=O)(=O)O)c1
3,0.12 nM,CCCCCC[C@H](C(=O)N1C[C@@H](Oc2ccc(CC(=O)O)cc2)C[C@H]1C(=O)O)n1cnc(NC(=O)c2ccccc2S(=O)(=O)O)c1
4,4.5 nM,CCCCCC[C@@H](C(=O)N1C[C@@H](Oc2ccc(CC(=O)O)cc2)C[C@H]1C(=O)O)n1cnc(NC(=O)c2ccccc2S(=O)(=O)O)c1
5,489 nM,CCCCCC[C@@H](C(=O)N1C[C@H](Oc2ccc(CC(=O)O)cc2)C[C@@H]1C(=O)O)n1cnc(NC(=O)c2ccccc2S(=O)(=O)O)c1

# Further lines, the compound ahead of its results:
row,Compound,Kb
1,CCCCCC[C@@H](C(=O)N1C[C@H](Oc2ccc(CC(=O)O)cc2)C[C@H]1C(=O)O)n1cnc(NC(=O)c2ccccc2S(=O)(=O)O)c1,555 nM
2,CCCCCC[C@@H](C(=O)N1C[C@@H](Oc2ccc(CC(=O)O)cc2)C[C@@H]1C(=O)O)n1cnc(NC(=O)c2ccccc2S(=O)(=O)O)c1,761 nM
3,CCCCCC[C@H](C(=O)N1C[C@H](Oc2ccc(CC(=O)O)cc2)C[C@@H]1C(=O)O)n1cnc(NC(=O)c2ccccc2S(=O)(=O)O)c1,191 nM

# Source: ChEMBL document CHEMBL1127875 (Bioorg Med Chem Lett, 1994)
